# Reference: publication PMC10301922, “Anti-Oxidant, Anti-Mutagenic Activity and Safety Evaluation of Antrocin” (Toxics, 2023)
# Test system: Sprague Dawley rats
# Assay: 28-day oral toxicity test: histopathological examination
# Conditions: for Bone, femur: Hypertrophy, epiphysis; Score value / Bone marrow, femur: Hypocellularity; Score value / Bone marrow, sternum: Hypocellularity; Score value / Spleen: Atrophy, red pulp; Score value: grades 1-5
# [1] = female rats, 7.5 mg/kg oral 28 d
# [2] = female rats, 37.5 mg/kg oral 28 d
# [3] = male rats, 37.5 mg/kg oral 28 d
smiles,measurement,setting,value
"C=C1CC[C@H]2C(C)(C)CCC[C@@]23C(=O)OC[C@@H]13 [Antrocin, (-)-Antrocin]","Adrenal gland: Congestion, cortex, focal, slight; incidence",[1],-
same,Aorta: histopathological lesions,[1],-
same,"Bone, femur: Hypertrophy, epiphysis, diffuse, slight to moderate/severe; incidence",[1],0/5
same,Cervix: histopathological lesions,[1],-
same,Esophagus: histopathological lesions,[1],-
same,Eyes: histopathological lesions,[1],-
same,Heart: histopathological lesions,[1],-
same,"Kidney: Cast, tubule, focal, slight; incidence",[1],-
same,"Liver: Fatty change, multifocal, slight; incidence",[1],1/5
same,Lung: histopathological lesions,[1],-
same,Optic nerve: histopathological lesions,[1],-
same,"Ovary: Increase, follicle, multifocal, moderate to moderate/severe; incidence",[1],0/5
same,Oviduct: histopathological lesions,[1],-
same,Pancreas: histopathological lesions,[1],-
same,Parathyroid gland: histopathological lesions,[1],-
same,Pituitary: histopathological lesions,[1],-
same,Salivary gland: histopathological lesions,[1],-
same,Sciatic nerve: histopathological lesions,[1],-
same,Skeletal muscle: histopathological lesions,[1],-
same,Skin: histopathological lesions,[1],-
same,Spinal cord: histopathological lesions,[1],-
same,Spleen: histopathological lesions,[1],-
same,Stomach: histopathological lesions,[1],-
same,Thymus: histopathological lesions,[1],-
same,Thyroid gland: histopathological lesions,[1],-
same,Tongue: histopathological lesions,[1],-
same,Trachea: histopathological lesions,[1],-
same,Urinary bladder: histopathological lesions,[1],-
same,Uterus: histopathological lesions,[1],-
same,Vagina: histopathological lesions,[1],-
same,"Bone, femur: Hypertrophy, epiphysis; Score value",[1],0
same,"Adrenal gland: Congestion, cortex, focal, slight; incidence",[2],-
same,Aorta: histopathological lesions,[2],-
same,"Bone, femur: Hypertrophy, epiphysis, diffuse, slight to moderate/severe; incidence",[2],0/5
same,Cervix: histopathological lesions,[2],-
same,Esophagus: histopathological lesions,[2],-
same,Eyes: histopathological lesions,[2],-
same,"Harderian gland: Infiltration, mononuclear cell, focal, minimal; incidence",[2],1/5
same,Heart: histopathological lesions,[2],-
same,"Kidney: Cast, tubule, focal, slight; incidence",[2],-
same,Lung: histopathological lesions,[2],-
same,Optic nerve: histopathological lesions,[2],-
same,"Ovary: Increase, follicle, multifocal, moderate to moderate/severe; incidence",[2],0/5
same,Oviduct: histopathological lesions,[2],-
same,Pancreas: histopathological lesions,[2],-
same,Parathyroid gland: histopathological lesions,[2],-
same,Pituitary: histopathological lesions,[2],-
same,Salivary gland: histopathological lesions,[2],-
same,Sciatic nerve: histopathological lesions,[2],-
same,Skeletal muscle: histopathological lesions,[2],-
same,Skin: histopathological lesions,[2],-
same,Spinal cord: histopathological lesions,[2],-
same,Spleen: histopathological lesions,[2],-
same,Stomach: histopathological lesions,[2],-
same,Thymus: histopathological lesions,[2],-
same,Thyroid gland: histopathological lesions,[2],-
same,Tongue: histopathological lesions,[2],-
same,Trachea: histopathological lesions,[2],-
same,Urinary bladder: histopathological lesions,[2],-
same,Uterus: histopathological lesions,[2],-
same,Vagina: histopathological lesions,[2],-
same,"Bone, femur: Hypertrophy, epiphysis; Score value",[2],0
same,treatment-related lesions in the histopathological examination,high dose (37.5 mg/kg) oral 28 d,no significant treatment-related lesions
same,"Adrenal gland: Congestion, cortex, multifocal, slight; incidence","male rats, 7.5 mg/kg oral 28 d",-
same,Aorta: histopathological lesions,"male rats, 7.5 mg/kg oral 28 d",-
same,"Bone marrow, femur: Hypocellularity, diffuse, slight to moderate/severe; incidence","male rats, 7.5 mg/kg oral 28 d",0/5
same,"Bone marrow, sternum: Hypocellularity, diffuse, moderate; incidence","male rats, 7.5 mg/kg oral 28 d",0/5
same,"Bone, femur: Hypertrophy, epiphysis, diffuse, slight to moderate/severe; incidence","male rats, 7.5 mg/kg oral 28 d",0/5
same,Coagulative gland: histopathological lesions,"male rats, 7.5 mg/kg oral 28 d",-
same,"Epididymis: Granuloma, spermatic, focal, moderate; incidence","male rats, 7.5 mg/kg oral 28 d",-
same,Esophagus: histopathological lesions,"male rats, 7.5 mg/kg oral 28 d",-
same,Eyes: histopathological lesions,"male rats, 7.5 mg/kg oral 28 d",-
same,Harderian gland: histopathological lesions,"male rats, 7.5 mg/kg oral 28 d",-
same,"Heart: Infiltration, mononuclear cell, focal, minimal to slight; incidence","male rats, 7.5 mg/kg oral 28 d",1/5
same,"Intestine, large, Caecum: histopathological lesions","male rats, 7.5 mg/kg oral 28 d",-
same,"Intestine, large, Colon: histopathological lesions","male rats, 7.5 mg/kg oral 28 d",-
same,"Intestine, large, Rectum: histopathological lesions","male rats, 7.5 mg/kg oral 28 d",-
same,"Intestine, small, Duodenum: histopathological lesions","male rats, 7.5 mg/kg oral 28 d",-
same,"Intestine, small, Ileum: histopathological lesions","male rats, 7.5 mg/kg oral 28 d",-
same,"Intestine, small, Jejunum: histopathological lesions","male rats, 7.5 mg/kg oral 28 d",-
same,"Kidney: Cast, tubule, focal, minimal; incidence","male rats, 7.5 mg/kg oral 28 d",-
same,"Kidney: Cyst, tubule, focal, slight; incidence","male rats, 7.5 mg/kg oral 28 d",1/5
same,"Kidney: Infarct, tubule, focal, slight; incidence","male rats, 7.5 mg/kg oral 28 d",2/5
same,Liver: histopathological lesions,"male rats, 7.5 mg/kg oral 28 d",-
same,Lung: histopathological lesions,"male rats, 7.5 mg/kg oral 28 d",-
same,"Lymph node, Cervical: histopathological lesions","male rats, 7.5 mg/kg oral 28 d",-
same,"Lymph node, Mesenteric: histopathological lesions","male rats, 7.5 mg/kg oral 28 d",-
same,Mammary gland: histopathological lesions,"male rats, 7.5 mg/kg oral 28 d",-
same,Optic nerve: histopathological lesions,"male rats, 7.5 mg/kg oral 28 d",-
same,Pancreas: histopathological lesions,"male rats, 7.5 mg/kg oral 28 d",-
same,Parathyroid gland: histopathological lesions,"male rats, 7.5 mg/kg oral 28 d",-
same,Pituitary: histopathological lesions,"male rats, 7.5 mg/kg oral 28 d",-
same,"Salivary gland, Mandibular lobe: histopathological lesions","male rats, 7.5 mg/kg oral 28 d",-
same,"Salivary gland, Sublingual lobe: histopathological lesions","male rats, 7.5 mg/kg oral 28 d",-
same,Sciatic nerve: histopathological lesions,"male rats, 7.5 mg/kg oral 28 d",-
same,Seminal vesicle: histopathological lesions,"male rats, 7.5 mg/kg oral 28 d",-
same,Skeletal muscle: histopathological lesions,"male rats, 7.5 mg/kg oral 28 d",-
same,Skin: histopathological lesions,"male rats, 7.5 mg/kg oral 28 d",-
same,Spinal cord: histopathological lesions,"male rats, 7.5 mg/kg oral 28 d",-
same,"Spleen: Atrophy, red pulp, diffuse, slight to moderate; incidence","male rats, 7.5 mg/kg oral 28 d",0/5
same,Stomach: histopathological lesions,"male rats, 7.5 mg/kg oral 28 d",-
same,Testis: histopathological lesions,"male rats, 7.5 mg/kg oral 28 d",-
same,Thymus: histopathological lesions,"male rats, 7.5 mg/kg oral 28 d",-
same,Thyroid gland: histopathological lesions,"male rats, 7.5 mg/kg oral 28 d",-
same,Tongue: histopathological lesions,"male rats, 7.5 mg/kg oral 28 d",-
same,Trachea: histopathological lesions,"male rats, 7.5 mg/kg oral 28 d",-
same,Urinary bladder: histopathological lesions,"male rats, 7.5 mg/kg oral 28 d",-
same,"Bone marrow, femur: Hypocellularity; Score value","male rats, 7.5 mg/kg oral 28 d",0
same,"Bone marrow, sternum: Hypocellularity; Score value","male rats, 7.5 mg/kg oral 28 d",0
same,"Bone, femur: Hypertrophy, epiphysis; Score value","male rats, 7.5 mg/kg oral 28 d",0
same,"Spleen: Atrophy, red pulp; Score value","male rats, 7.5 mg/kg oral 28 d",0
same,"Adrenal gland: Congestion, cortex, multifocal, slight; incidence",[3],-
same,Aorta: histopathological lesions,[3],-
same,"Bone marrow, femur: Hypocellularity, diffuse, slight to moderate/severe; incidence",[3],0/5
same,"Bone marrow, sternum: Hypocellularity, diffuse, moderate; incidence",[3],0/5
same,"Bone, femur: Hypertrophy, epiphysis, diffuse, slight to moderate/severe; incidence",[3],0/5
same,Coagulative gland: histopathological lesions,[3],-
same,"Epididymis: Granuloma, spermatic, focal, moderate; incidence",[3],-
same,Esophagus: histopathological lesions,[3],-
same,Eyes: histopathological lesions,[3],-
same,Harderian gland: histopathological lesions,[3],-
same,"Heart: Infiltration, mononuclear cell, focal, minimal to slight; incidence",[3],1/5
same,"Intestine, large, Caecum: histopathological lesions",[3],-
same,"Intestine, large, Colon: histopathological lesions",[3],-
same,"Intestine, large, Rectum: histopathological lesions",[3],-
same,"Intestine, small, Duodenum: histopathological lesions",[3],-
same,"Intestine, small, Ileum: histopathological lesions",[3],-
same,"Intestine, small, Jejunum: histopathological lesions",[3],-
same,"Kidney: Cast, tubule, focal, minimal; incidence",[3],-
same,"Kidney: Infarct, tubule, focal, slight; incidence",[3],1/5
same,Liver: histopathological lesions,[3],-
same,Lung: histopathological lesions,[3],-
same,"Lymph node, Cervical: histopathological lesions",[3],-
same,"Lymph node, Mesenteric: histopathological lesions",[3],-
same,Mammary gland: histopathological lesions,[3],-
same,Optic nerve: histopathological lesions,[3],-
same,Pancreas: histopathological lesions,[3],-
same,Parathyroid gland: histopathological lesions,[3],-
same,Pituitary: histopathological lesions,[3],-
same,"Prostate gland: Infiltration, mononuclear cell, focal, minimal to slight; incidence",[3],2/5
same,"Salivary gland, Mandibular lobe: histopathological lesions",[3],-
same,"Salivary gland, Sublingual lobe: histopathological lesions",[3],-
same,Sciatic nerve: histopathological lesions,[3],-
same,Seminal vesicle: histopathological lesions,[3],-
same,Skeletal muscle: histopathological lesions,[3],-
same,Skin: histopathological lesions,[3],-
same,Spinal cord: histopathological lesions,[3],-
same,"Spleen: Atrophy, red pulp, diffuse, slight to moderate; incidence",[3],0/5
same,Stomach: histopathological lesions,[3],-
same,Testis: histopathological lesions,[3],-
same,Thymus: histopathological lesions,[3],-
same,Thyroid gland: histopathological lesions,[3],-
same,Tongue: histopathological lesions,[3],-
same,Trachea: histopathological lesions,[3],-
same,Urinary bladder: histopathological lesions,[3],-
same,"Bone marrow, femur: Hypocellularity; Score value",[3],0
same,"Bone marrow, sternum: Hypocellularity; Score value",[3],0
same,"Bone, femur: Hypertrophy, epiphysis; Score value",[3],0
same,"Spleen: Atrophy, red pulp; Score value",[3],0
